Reference: US7855198B2, “Benzamide derivative or salt thereof” (Astellas Pharma Inc., priority 2003, dated 2010)
Where a name gives a salt, the structure may show the parent alone.

Tests used:
human VR1 = molecular target: T1, human VR1 (Homo sapiens, UniProt Q8NER1); assay: Receptor binding assay ([3H]RTX) using membranes of VR1 stably expressing cell; settings: [3H]RTX binding, VR1/HEK293 membrane preparation
T1 construct: A full-length cDNA encoding human VR1 was obtained by the following method; expressed in transfected cells; membrane preparation
Procedure: A full-length cDNA encoding human VR1 was obtained by the following method. First, human brain mRNA was reverse transcribed using a reverse transcriptase to synthesize a first strand cDNA. Then, using the first strand cDNA as a template, PCR according to Hot Start method was carried out using Taq DNA polymerase. The above PCR was carried out by first conducting thermal denaturation of 98° C. (1 min) and then repeating a cycle consisting of 98° C. (15 sec)/63° C. (30 sec)/72° C. (3 min) 35 times using an oligonucleotide consisting of a base sequence of 424th to 443rd in a known human VR1 cDNA sequence (Genbank AJ277028.1) as a sense primer and an oligonucleotide consisting of a complimentary sequence of a base sequence of 3082nd to 3100th as an antisense primer.
An amplified DNA fraction was cloned using pCR-XL-TOPO vector (TOPO XL PCR Cloning Kit; Invitrogen, USA). The resulting plasmid DNA was digested with a restriction enzyme EcoRI to isolate human VR1-cDNA alone, which was then integrated into pcDNA3.1(+) plasmid (Invitrogen, USA). The above genetic engineering operations were carried out in accordance with known methods (Sambrook, J. et al, Molecular Cloning—A Laboratory Manual”, Cold Spring Harbor Laboratory Press, NY, 2001) and directions attached to individual reagents.
Next, the resulting pcDNA3.1-VR1 was transduced into HEK293 cells or CHO-KL cells. VR1/HEK293 cells were selected using a DMEM medium (Invitrogen, USA) containing 10% FBS, 100 μg/ml streptomycin, 100 U/ml penicillin, and 400 μg/ml G418 and VR1/CHO cells were selected using a HumF12 medium (Invitrogen, USA) containing 10% FBS, 100 μg/ml streptomycin, 100 U/ml penicillin, and 400 μg/ml G418 to prepare receptor stably expressing cell lines. The receptor stably expressing cells were subcultured in respective above media.
After the above VR1/HEK293 cells were cultured in glass dishes in a large quantity, the medium was removed and cells were scraped up with adding ice-cooled PBS. They were centrifuged at 1,000 rpm at 4° C. for 10 minutes. After a buffer for homogenization (25 mM Tris-HCl, 220 mM sucrose, pH 7.4) was added to the resulting sediment and the whole was homogenized, it was centrifuged at 2,200 rpm at 4° C. for 10 minutes. The resulting supernatant was centrifuged at 30,000×g at 4° C. for 20 minutes and an operation of adding 25 mM Tris-HCl, pH 7.4 to the resulting sediment and centrifuging it at 30,000×g at 4° C. for 20 minutes was repeated twice. The resulting sediment was suspended in 25 mM Tris-HCl, pH 7.4 and protein concentration was determined using a protein assay staining solution (Bio Rad, USA). The membrane preparation thus prepared was stored at −80° C.
The test was carried out by modifying the method of [Neurosci. 57: 747-757 (1993)]. Assay buffer (25 mM Tris-HCl, 0.025% BSA, pH 7.4) (147 μl), 3 μl of a test compound, 50 μl of [^3H]RTX (about 50,000 dpm; Perkin-Elmer Life Science, USA), 100 μl of the above membrane preparation (protein amount of about 25 μg) were mixed and incubated at 37° C. for 60 minutes, and then the whole was incubated on ice for 10 minutes. An ice-cooled […] (AGP; Sigma) was added in an amount of 200 μg/50 μl, followed by further 5 minutes of incubation. The completion of the incubation was effected by rapid filtration of the mixture using a GF/B filter (Perkin-Elmer Life Science, USA). After the filter was washed with ice-cooled 25 mM Tris-HCl buffer (pH 7.4) seven times, radioactivity of the filter was measured by means of a liquid scintillation counter (2500TR; Packard, USA). With regard to a specific binding, of the total binding amount of [^3H]RTX and membrane fractions of VR1 receptor stably expressing cell, a portion substituted by 1 μM RTX was regarded as a specific binding derived from VR1 receptor. Evaluation of the test compound was conducted as follows. […]

[1] = system: paw-licking action induced by capsaicin; assay: Capsaicin test (paw-licking action); type: in vivo; settings: mouse, oral administration 30 mg/kg, 45 minutes before capsaicin; read-out: Inhibition ratio (%)
Procedure: The test was carried out in accordance with [Neuropharmacol. 31: 1279-1285 (1992)]. When 1.6 μg of capsaicin was administered to the planta of a mouse (ddY, male, 4- to 5-weeks old), a paw-licking action is induced. By measuring a time of expressing paw-licking action during 5 minutes after the administration, an inhibitory effect on pain behavior was evaluated. A test compound was administered intraperitoneally 30 minutes before the capsaicin administration or administered orally 45 minutes before the capsaicin administration. Evaluation of the test compound was conducted by determining each inhibition ratio in a test compound-administered group when the time of expressing paw-licking action in a vehicle-administered group was regarded as 100%.

T1 sequence (Q8NER1 whole entry): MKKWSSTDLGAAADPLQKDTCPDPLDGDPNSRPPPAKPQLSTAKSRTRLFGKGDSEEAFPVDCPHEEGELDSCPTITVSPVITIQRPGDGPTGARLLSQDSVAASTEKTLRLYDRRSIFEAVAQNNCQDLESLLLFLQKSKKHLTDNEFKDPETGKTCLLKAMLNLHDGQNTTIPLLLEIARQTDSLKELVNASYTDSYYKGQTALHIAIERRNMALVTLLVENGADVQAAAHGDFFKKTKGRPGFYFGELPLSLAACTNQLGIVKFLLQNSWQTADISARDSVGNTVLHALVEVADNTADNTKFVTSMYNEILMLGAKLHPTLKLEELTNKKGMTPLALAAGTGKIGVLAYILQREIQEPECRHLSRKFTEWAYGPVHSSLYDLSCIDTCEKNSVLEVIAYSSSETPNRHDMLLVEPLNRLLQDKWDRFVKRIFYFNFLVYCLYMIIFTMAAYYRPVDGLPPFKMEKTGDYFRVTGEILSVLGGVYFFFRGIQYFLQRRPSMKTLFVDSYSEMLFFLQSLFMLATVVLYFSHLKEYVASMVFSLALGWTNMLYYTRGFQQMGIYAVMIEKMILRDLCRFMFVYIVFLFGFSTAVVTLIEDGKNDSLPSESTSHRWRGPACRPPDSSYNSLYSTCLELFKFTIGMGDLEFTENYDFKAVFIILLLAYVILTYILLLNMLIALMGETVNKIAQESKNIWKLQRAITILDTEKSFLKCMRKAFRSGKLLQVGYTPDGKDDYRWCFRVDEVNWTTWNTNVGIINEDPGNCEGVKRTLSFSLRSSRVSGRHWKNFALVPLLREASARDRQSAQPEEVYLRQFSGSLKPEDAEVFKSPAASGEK

Compound	IC50 (human VR1) [nM]	inhibition in vivo at 30 mg/kg [1] [%]
CN1C(=O)CCc2ccc(NC(=O)c3ccc(-c4ccccc4)c(CN4CCCCC4)c3)cc21 [Example 78]	≤ 1000	76
CC1Oc2ccc(NC(=O)c3ccc(-c4ccccc4)c(CN4CCCCC4)c3)cc2N(C)C1=O (stereo not drawn) [Example 85]	≤ 1000	86
CC1(C)C(=O)Nc2cc(NC(=O)c3ccc(-c4ccccc4)c(CN4CCCCC4)c3)ccc21 [Example 87]	≤ 1000	67
O=C(Nc1ccc2scnc2c1)c1ccc(-c2ccccc2)c(CN2CCC(F)CC2)c1 [Example 110]	≤ 1000	
CC1CCN(C2CCCN(Cc3cc(C(=O)Nc4ccc5c(c4)NC(=O)C(C)O5)ccc3-c3ccccc3)C2)CC1 (stereo not drawn) [Example 122]	≤ 1000	
CCN(Cc1cc(C(=O)Nc2ccc3c(c2)NC(=O)C(C)O3)ccc1-c1ccccc1)CC(C)(C)O (stereo not drawn) [Example 123]	≤ 1000	69
Cn1c(=O)ccc2ccc(NC(=O)c3ccc(-c4ccccc4)c(CN4CCCCC4)c3)cc21 [Example 129]	≤ 1000	91
Cc1cc2ccc(NC(=O)c3ccc(-c4ccccc4)c(CN4CCCCC4)c3)cc2[nH]c1=O [Example 130]	≤ 1000	62
CCN(CC)Cc1cc(C(=O)Nc2cc3c(c(C(F)(F)F)c2)CC(=O)N3)ccc1-c1ccccc1 [Example 143]	≤ 1000	
CN1C(=O)CCc2ccc(NC(=O)c3ccc(-c4cccs4)c(CN4CCCCC4)c3)cc21 [Example 163]	≤ 1000	
CCN(Cc1cc(C(=O)Nc2ccc3c(c2)N(C)C(=O)CC3)ccc1-c1ccccc1)C1CCOCC1 [Example 170]	≤ 1000	68
CCN(Cc1cc(C(=O)Nc2ccc3c(c2)N(C)C(=O)CC3)ccc1-c1ccccc1)C1CCSCC1 [Example 181]	≤ 1000	
CC(C)CN(CCN1CCCCC1)Cc1cc(C(=O)Nc2ccc3c(c2)NC(=O)C(C)O3)ccc1-c1ccccc1 (stereo not drawn) [Example 195]	≤ 1000	

The next lines start with results.

IC50 (human VR1) [nM]	Compound	inhibition in vivo at 30 mg/kg [1] [%]
≤ 1000	COc1cccc(NC(=O)c2ccc(-c3ccccc3)c(CN3CCCCC3)c2)c1 [Example 1, N-(3-methoxyphenyl)-2-(piperidin-1-ylmethyl)biphenyl-4-carboxamide hydrochloride]	
≤ 1000	O=C(Nc1ccc2scnc2c1)c1ccc(-c2ccccc2)c(CN2CCCCC2)c1 [Example 7]	
≤ 1000	O=C(Nc1ccc2scnc2c1)c1ccc(-c2ccccc2)c(CN2CCOCC2)c1 [Example 21]	
≤ 1000	CC(C)N(Cc1cc(C(=O)Nc2ccc3scnc3c2)ccc1-c1ccccc1)C1CCCCC1 [Example 33]	66
≤ 1000	O=C1CCc2ccc(NC(=O)c3ccc(-c4ccccc4)c(CN4CCCCC4)c3)cc2N1 [Example 60]	
≤ 1000	CN(C)c1ccc(NC(=O)c2ccc(-c3ccccc3)c(CN3CCCCC3)c2)cn1 [Example 71]	
